Patent US7598079B2, “Assay for identifying compounds which affect stability of mRNA” (Novation Pharmaceuticals, Inc., priority 1998, dated 2009)
Where two headings read alike, the source gives them in different places. Numbered stars: 1 amine (or outer) side, 2 acyl side, 3 side chain; on linkers, the order of the positions; unused ones are H or OH. Bridge positions count the residues as written; N and C are the ends. Square brackets hold non-standard residues; d marks the D form. Peptide text beside a SMILES is read from it. I, II: the chains in the order shown. Actinocin(9to1) = Cc1c2oc3c(C)ccc(C(=O)[*:1])c3nc-2c(C(=O)[*:2])c(N)c1=O; NMeV = CN[C@H](C(=O)O)C(C)C; Sar = CNCC(=O)O

What was measured:
Type in all cases: cell-based, human
[1] = tested on: THP-1 control clone No. 53 (luciferase mRNA without instability sequence); experiment: Luciferase reporter gene assay, control clone No. 53 (pGL2_Neo, no instability sequence); details: for Luciferase Activity Clone 53 γIFN/LPS stimulated: γIFN/LPS stimulated cells, mean of three experiments; for Luciferase Activity (% of Control) Clone No. 53: compound 1 μM, differentiated cells
Description: (§1) In order to obtain a vector for stable integration into THP-1 cells, a XhoI-SaII fragment of the neo resistant gene (expressing aminoglycoside 3′phosphotransferase) derived from pMC1neoPolyA (Stratagene) was subcloned into the SaII site of pGL2-Control (Promega). This resulting plasmid was called pGL2_Neo. A 30 bp fragment (containing three tandem AUUUA motifs and flanking IL-1β 3′UTR sequence) obtained by annealing two complementary synthetic oligonucleotides (see FIG. 2) was subcloned into pGL2_Neo using the PflMI restriction site. […] The lacZ gene was obtained from a HindIII/BamHI restriction digest of pSV-beta-Galactosidase (Promega) and subcloned into the HindIII/BamHI site of pGL2-Control (Promega).
(§2) THP-1 cells were then cotransfected with either pGL2_Neo and pGL2-β-galactosidase vectors (to generate control cell lines) or with pGL2_Neo30 and pGL2-β-galactosidase vectors by electroporation. 10^7 cells/ml in 1.3 mM KH2PO4, 7.36 mM Na2HPO4, 2.44 mM KCl, 124 mM NaCl, 5 mM glucose, 9.64 μM MgCl2 and 16 μM CaCl2 pH 7.2 were transfected with 20 μg of DNA in a Bio-Rad Gene Pulser (250V, 690 μF and indefinite resistance) using a 0.4 cm cuvette. Cells were subsequently cultured in RPMI medium containing 10% FBS, 2 mM L-Gln (L-glutamine), 50 μM 2-mercaptoethanol and 600 μg/ml of G418 (geneticin). After transfection of pGL2_Neo30 and pGL2_Neo into THP-1 cells, G418 resistant stable cell lines were obtained by selection with G418 and assayed for luciferase activity. Cotransfected cell lines were also assayed for β-galactosidase activity which can serve as an internal control (see Example 5 below). One cell line of each transfection was chosen for further analysis; the pGL2_Neo30/pGL2-β-galactosidase cell line was referred to as clone No. 63 and the pGL2_Neo/pGL2-β-galactosidase cell line as clone No. 53. No endogenous luciferase activity could be detected in normal THP-1 cells.
(§3) The transfected human monocytic leukaemia cell lines, clones No. 53 and 63 are grown in RPMI medium supplemented with 110 U/ml penicillin, 100 μg/ml streptomycin, 2 mM L-Gln and 2 g/l NaHCO3. Heat-treated FBS (5%) is added before use. The cells are grown to a density of 5×10^5/ml and induced to differentiate with 100 U/ml (final concentration) γIFN. Three hours later, 10 μl of LPS (5 μg/ml final concentration) is added. This time point is designated time 0. Compounds are added at various times after LPS addition as indicated.
(§4) In order to adapt the system to the use of 96 well plates, cells were grown in Packard flat bottom white polystyrene microplates (Cat. No. 6005180) in RPMI medium lacking phenol red (AMIMED). Cells were plated at 5×10^4/well. After treatment of the cells, luciferase was measured using the Packard Luc Lite system (Cat. No. 601691 1) according to the manufacturer's instructions in a final volume of 205 μl. Briefly, to a cell suspension of 5×10^5 cells/ml, γIFN (1000 U/ml, Boehringer Mannheim, No. 1050494) to a final concentration of 100 U/ml and 0.25% (v/v) Luc Lite Enhancer was added. After a 3 hour incubation LPS (50 μg/ml Sigma, L-8274) was added to give 5 μg/ml final concentration. The cells were then plated at 5×10^4/100 μl/well into flat bottom white polystyrene microplates (Packard, Cat. No. 6005180) and incubated for 16 hours. 5 μl of compound solution or control vehicle was then added and the cells were further incubated as indicated. 100 μl of luciferase substrate solution was added and the plates were covered with TopSeal-A press-on adhesive sealing film (Packard Cat. No. 6005185) before measuring luminescence with a Packard Top Count Scintillation Counter at 22° C. The luciferase signal was stable for at least 90 min.
(§5) The THP-1 cell lines, clone Nos. 63 and 53 are grown, differentiated with γIFN and stimulated with LPS identical to normal THP-1 cells. Radicicol analog A was added 16 hours after the addition of LPS and cell extracts were then taken 8 hours later or as indicated. […]

[2] = tested on: IL-1β-AU cDNA derived RNA (3′ UTR AREs deleted) in THP-1 cells; experiment: RNase protection analysis of IL-1β-AU (ARE-deleted) RNA in stably transfected THP-1 cells; details: THP-1 cells stably transfected with IL-1β-AU construct
Description: For examples 1-5, the segment of 3′ UTR of IL-1β which contains all the AREs was deleted and the resulting IL-1β-AU cDNA was subcloned into an expression vector.

[3] = tested on: THP-1 clone 53 (pGL2-β-galactosidase, lacZ without mRNA instability sequences); experiment: β-galactosidase internal control activity, clone 53; details: mean of three experiments; for β-galactosidase activity Clone 53 Unstimulated: unstimulated cells; for β-galactosidase activity Clone 53 γIFN/LPS stimulated: γIFN/LPS stimulated cells
Description: as §1, §2
(§6) In the previous examples, test compounds were assayed by comparing their activity in two separate cell lines (clone Nos. 53 and 63). However, clone 63 was cotransfected with two separate plasmids: one plasmid (pGL2_Neo30) contained the luciferase gene with the 30 bp instability sequence driven by the SV40 promoter and the other plasmid (pGL2-β-galactosidase, FIG. 3B) contained the lacZ gene driven by the SV40 promoter but contained no mRNA instability sequences. The β-galactosidase activity of this cell line should not be affected by exposure of the cells to compounds which promote mRNA instability via mRNA instability sequences. As a result, one should be able to screen for compounds having mRNA instability activity by simply comparing luciferase activity in unstimulated cells versus stimulated cells and comparing the β-galactosidase activity in these same cells. […]

[4] = tested on: THP-1 clone 63 (pGL2-β-galactosidase, lacZ without mRNA instability sequences); experiment: β-galactosidase internal control activity, clone 63; details: mean of three experiments; for β-galactosidase activity Clone 63 Unstimulated: unstimulated cells; for β-galactosidase activity Clone 63 γIFN/LPS stimulated: γIFN/LPS stimulated cells
Description: as §1, §2, §6

[5] = tested on: THP-1 control clone No. 53 (luciferase mRNA without instability sequence); experiment: Luciferase reporter gene assay, control clone No. 53 (pGL2_Neo, no instability sequence); details: 10 μM; unstimulated cells; mean of three experiments
[6] = tested on: THP-1 clone No. 63 (luciferase mRNA with IL-1β 3′UTR instability sequence, three tandem AUUUA motifs); experiment: Luciferase reporter gene assay, clone No. 63 (pGL2_Neo30 with 30 bp IL-1β 3′UTR mRNA instability sequence); details: for Effect on mRNA stability in the assay (Table 3 summary) / Luciferase Activity (% of Control) Clone No. 63: differentiated cells; for Effect on mRNA stability in the assay (Table 3 summary): clone 63 versus clone 53; for Luciferase Activity Clone 63 γIFN/LPS stimulated: γIFN/LPS stimulated cells, mean of three experiments; for inhibition at 1 µM: Homo sapiens, THP-1; for Luciferase Activity (% of Control) Clone No. 63: compound 1 μM
Description: as §1, §2, §3, §4, §5

[7] = tested on: THP-1 clone No. 63 (luciferase mRNA with IL-1β 3′UTR instability sequence, three tandem AUUUA motifs); experiment: as above; details: for Luciferase Activity Clone 63 Unstimulated: unstimulated cells, mean of three experiments
[8] = tested on: THP-1 clones No. 53 and 63 (luciferase); experiment: Half life of luciferase mRNA and protein after addition of compounds, clones No. 53 and 63; details: after 8 hours level comparable to radicicol analog A (1 μM)
Description: To measure mRNA degradation using luciferase protein activity it is important to know the half life of the luciferase enzyme in order to determine an optimal time for assaying for potential mRNA destabilizing agents by way of luciferase protein stability. The possibility exists that mRNA could be degraded but due to a long half life of the protein, high enzyme activities could persist. Therefore we analyzed luciferase activities after addition of the transcriptional inhibitor actinomycin D (act. D) or the translational inhibitor cycloheximide (CHX). […] In view of this relatively short half life of the luciferase enzyme, it is safe to assess substances for activity on mRNA degradation as early as 8 hours after compound addition.

## COc1cc(O)c2c(c1OC)/C=C/C[C@H](O)[C@H](O)C(=O)/C=C\C[C@H](C)OC2=O [Radicicol analog A, radicicol analog A]
[1]; 1 μM
  Luciferase Activity Clone 53 γIFN/LPS stimulated: 88 % control
[1]; 10 μM
  Luciferase Activity Clone 53 γIFN/LPS stimulated: 63 % control
[1]
  Luciferase Activity (% of Control) Clone No. 53: 120 % of Control
[1]; concentrations higher than 5×10^−6 M
  Effect on control clone (No. 53) at high concentrations (cytotoxicity or inhibitory activity on transcription): also inhibited the control clone
[1]; up to 5×10^−6M
  Effect on luciferase activity of control clone No. 53: no effects
[2]
  Response of AU-less derived RNA to compound (RNase protection): showed resistance
[3]; 1 μM
  β-galactosidase activity Clone 53 Unstimulated: 99 % control
  β-galactosidase activity Clone 53 γIFN/LPS stimulated: 98 % control
[3]; 10 μM
  β-galactosidase activity Clone 53 Unstimulated: 103 % control
  β-galactosidase activity Clone 53 γIFN/LPS stimulated: 62 % control
[4]; 1 μM
  β-galactosidase activity Clone 63 Unstimulated: 96 % control
  β-galactosidase activity Clone 63 γIFN/LPS stimulated: 97 % control
[4]; 10 μM
  β-galactosidase activity Clone 63 Unstimulated: 84 % control
  β-galactosidase activity Clone 63 γIFN/LPS stimulated: 70 % control
[5]
  Luciferase Activity Clone 53 Unstimulated: 87 % control
[6]; 1 μM
  Effect on mRNA stability in the assay (Table 3 summary): clear effect on mRNA stability
  Luciferase Activity Clone 63 γIFN/LPS stimulated: 7 % control
[6]; 10 μM
  Luciferase Activity Clone 63 γIFN/LPS stimulated: 2 % control
[6]; 1 μM, differentiated clone No. 63, 8 hours, read-out: Inhibition of luciferase activity, greatest in some cases
  inhibition at 1 µM: 93%
[6]; 1 μM, differentiated clone No. 63, added 16 h after LPS, extracts 8 hours later, read-out: Inhibition of luciferase activity, on average
  inhibition at 1 µM: 50%
[6]
  Luciferase Activity (% of Control) Clone No. 63: 49 % of Control
[6]; differentiated clone No. 63, 8 hr. treatment (FIG. 8)
  Concentration dependence of luciferase inhibition in differentiated clone No. 63: Concentration dependent inhibition of luciferase activity
[7]; 1 μM, undifferentiated cells, 8 hr. treatment
  Reduction of luciferase activity in undifferentiated clone No. 63: only a limited reduction of luciferase activity
[7]; 1 μM
  Luciferase Activity Clone 63 Unstimulated: 63 % control
[7]; 10 μM
  Luciferase Activity Clone 63 Unstimulated: 11 % control

## C[C@@H]1C[C@H]2[C@@H]3CCC4=CC(=O)C=C[C@]4(C)[C@@]3(F)[C@@H](O)C[C@]2(C)[C@@]1(O)C(=O)CO [Dexamethasone]
[1]
  Luciferase Activity (% of Control) Clone No. 53: 72 % of Control
[6]
  Luciferase Activity (% of Control) Clone No. 63: 63 % of Control

## Cc1c2oc3c(C)ccc(C(=O)N[C@@H]4C(=O)N[C@H](C(C)C)C(=O)N5CCC[C@H]5C(=O)N(C)CC(=O)N(C)[C@@H](C(C)C)C(=O)O[C@@H]4C)c3nc-2c(C(=O)N[C@@H]2C(=O)N[C@H](C(C)C)C(=O)N3CCC[C@H]3C(=O)N(C)CC(=O)N(C)[C@@H](C(C)C)C(=O)O[C@@H]2C)c(N)c1=O [actinomycin D] (I: T[dV]P[Sar][NMeV] / II: T[dV]P[Sar][NMeV]; ester I:1-I:C, II:1-II:C; linker I:N-II:N via Actinocin(9to1))
[8]; 20 μg/ml
  Luciferase activities after addition of transcriptional inhibitor: rapidly declined

## Stemphon
[1]
  Luciferase Activity (% of Control) Clone No. 53: 95 % of Control
[6]
  Luciferase Activity (% of Control) Clone No. 63: 90 % of Control

## Radicicol
[1]
  Luciferase Activity (% of Control) Clone No. 53: 98 % of Control
[6]; 1 μM
  Effect on mRNA stability in the assay (Table 3 summary): clear effect on mRNA stability
[6]
  Luciferase Activity (% of Control) Clone No. 63: 47 % of Control

## C[C@@H]1C[C@@H]([C@H](O)CC2CC(=O)NC(=O)C2)C(=O)[C@@H](C)C1 [cycloheximide]
[8]; 20 μM
  Luciferase activities after addition of translational inhibitor: rapidly declined

## O=C1CCC(N2C(=O)c3ccccc3C2=O)C(=O)N1 (centres unmarked) [Thalidomide]
[1]
  Luciferase Activity (% of Control) Clone No. 53: 98 % of Control
[6]
  Luciferase Activity (% of Control) Clone No. 63: 112 % of Control

## C=C(C/C=C/C(C)(C)O)[C@@H]1CC[C@]2(C)[C@@H]1CC[C@@H]1[C@@]3(C)CC[C@H](O)C(C)(C)[C@@H]3CC[C@]12C [(17α)-23-(E)-dammara-20,23-dien-3β,25-diol]
[1]
  Luciferase Activity (% of Control) Clone No. 53: 116 % of Control
[6]
  Luciferase Activity (% of Control) Clone No. 63: 91 % of Control
